# Assay results published in patent publication US20180153830A1, “SELECTIVE INHIBITORS OF UNDIFFERENTIATED CELLS” (Yissum Research Development Company of the Hebrew …, priority 2012, published 2018).
# “Also recorded” adds a separate entry of the source.
# Legend:
# Format in all cases: cell-based
# [1] = tested on: neuroblastoma (Kelly) cells; experiment: CellTiter-Glo counter-screen, Kelly; settings: Homo sapiens, cancer cells
# Description: The neuroblastoma cell line Kelly was cultured in RPMI-1640 medium, supplemented with 15% fetal bovine serum (FBS), penicillin (50 U/ml) and streptomycin (50 μg/ml).
# 696 confirmed hits from the confirmation screen were tested for profiling in a panel of 13 different cell types, using the same screening protocol described above (except in the case of embryonic stem cell-derived neural stem cells (NSCs) and mesenchymal stem cells (MSCs), for which the protocol is described below). As discussed below, compounds were tested either in dose-dependent multiple concentration manner or in single concentration manner. CSES2 and CSES2-SO2/3 cell lines and the early endodermal progenitors derived from this cell line (CSES2-SO2/3-differentiated) were screened at 8 concentrations ranging from 50 μM to 23 nM with 1:3 serial dilution steps. BJ-iPS28 cell line and the BJ fibroblasts from which it was derived were screened at 6 concentrations ranging from 50 μM to 200 nM with 1:3 serial dilution steps. Cardiomyocytes were screened in one concentration of 20 μM. HeLa and NTERA-2 cell lines were screened in duplicates of 20 μM. Kelly and Huh-7 were screened in triplicates of 20 μM. Hepatocytes were screened in duplicates of 20 μM in the original 96-well plates in which the cells arrived (40,000 cells per well, in 160 μl medium, the volumes of all reagents involved were adjusted accordingly). MSCs and NSCs were screened in duplicates of 12.5 μM.
# In order to identify highly-selective cytotoxic inhibitors of hPSCs, the 696 cytotoxic inhibitors of hPSCs identified as described in Example 1 were counter-screened as described in the Materials and Methods section against other cell types, representative of all germ layers and developmental stages. Importantly, many of these cell types were differentiated from human ES or iPS cells. The screened cell types included ES-derived neural stem cells (NSCs), ES-derived mesenchymal stem cells (MSCs), ES-derived endodermal progenitor cells, ES-derived hepatocytes, iPS-derived cardiomyocytes, iPS-derived fibroblasts of origin (BJ fibroblasts), and three cancer cell lines: neuroblastoma (Kelly), cervical cancer (HeLa) and hepatocarcinoma (Huh7). The cell types and their relationship to stem cells are depicted schematically in FIG. 14.
# [2] = tested on: H9 human embryonic stem cells; experiment: CellTiter-Glo luminescent cell viability screen, H9; settings: pluripotent stem cells
# Description: 5,000 CSES2 cells were plated in 50 μl per well of mTeSR1 medium into black 384-well clear-bottom plates (Falcon BD) pre-coated with Matrigel™ using WellMate cell dispenser (Matrix, Hudson, N.H.). 24 hours after plating, medium was replaced with 25 μl of fresh medium and 25 μl of 40 μM compound medium solutions in 1% DMSO from the intermediate compound dilution plates. The plates were incubated at 37° C., in a 5% CO2 atmosphere, for the entire duration of the screen, apart from the time required for liquid handling. Cell viability was determined 24 hours after compound treatment using CellTiter-Glo® luminescent cell viability assay kits. 50 μl of CellTiter-Glo® reagent was added to each well of the assay plates and fully mixed. After incubation at room temperature for 15 minutes, 25 μl of liquid was transferred from each well into a white opaque-bottom 384-well plate (PerkinElmer), and luminescence was measured using an EnVision® plate reader (PerkinElmer). 16 neutral control wells (0.5% DMSO) and 8 positive control wells (5 μM amsacrine hydrochloride were used to normalize the compound effect. All liquid transfer steps were handled with a Biomek® FXP Laboratory Automation Workstation (Beckman Coulter, Fullerton, Calif.) and Muitidrop Combi liquid dispenser (Thermo Fisher, Waltham, Mass.). An Assay Analyzer (Genedata, Basel, Switzerland) was used for data pattern correction and calculation. The Spotfire software (Spotfire, Somerville, Mass.) was used for data illustration.
# The compounds identified as hits from the primary screen were retested at a concentration of 20 μM against three pluripotent stem cell lines (CSES2, H9 and CSES2-SO2/3) for confirmation screens.
# The raw intensity data for each well were background-corrected by subtraction of the median intensities across all positive control wells on the same plate, and used to calculate the inhibitory effect of each compound per cell line. A Genedata Assay Analyzer and Condoseo were used for data pattern correction, calculation and IC50 curve fitting. A Z′ factor was determined for each plate.
# [3] = tested on: human embryonic stem cells; experiment: Oleic acid rescue assay; settings: 20 μM PluriSIn (2 μM amsacrine); up to 100 μM BSA-OA
# Description: Human embryonic stem cells were cultured without feeder cells in CELLSTAR® 24-well tissue culture plates (Greiner Bio-One) pre-coated with Matrigel™, using mTeSR1 defined medium. […] After 24 hours, the cells were subjected to microscopy imaging and to cell viability measurements.
# In order to further investigate the effect of SCD activity on hPSC viability, the ability of exogenous supplementation of oleic acid (the direct product of SCD1) to rescue cells from PluriSIn-induced apoptosis was further studied, using procedures described in the Materials and Methods section. Cells were exposed to PluriSn #1 in the presence of increasing concentrations of BSA-conjugated oleic acid (BSA-OA).
# For comparison, cells were exposed to 20 μM of PluriSIn #1, #2, #3 and #6 in the presence of 100 μM BSA-OA.
Compound,inhibition at 20 µM [1] [%],inhibition at 20 µM [2] [%],protection by BSA-conjugated oleic acid (BSA-OA) against cell death induced by the compound [3]
O=C1C=CC=C1/C=C/C(=N\Nc1ccccc1)c1ccccc1 [PluriSIn #13],17.5,101,
Nc1cc(N)cc(COc2ccc(-c3ccccc3)cc2)c1 [PluriSIn #3],2.3,110,
Cc1oc2ccccc2c1/C=N/Nc1ccccc1 [PluriSIn #8],-1,85.5,
O=C(NN(C(=O)c1ccccc1)c1ccccc1)c1ccc(Cl)cc1 [PluriSIn #14],0,79.4,
O=S(=O)(NNc1ccccc1)c1ccc2ccccc2c1 [PluriSIn #5],0.2,82.2,protected
O=C(Nc1ccccc1)n1cc(F)c(=O)[nH]c1=O [PluriSIn #2],3,65.4,
CCN(CC)C(=O)C(=O)c1c(-c2ccccc2)[nH]c2c1sc1ccccc12 [PluriSIn #12],-0.9,95.8,
CCCCCC(=O)NNc1ccc(Cl)cc1 [PluriSIn #10],5.7,88,
C(=N\C1CCC(CC2CCCCC2)CC1)/OC1CCOC1 (stereo not drawn) [PluriSIn #15],9.9,79.5,
CCOC(=O)CN1CC(=O)/C(=C\NNc2ccccc2)C1=O [PluriSIn #11],3.3,94,
"O=C(NNc1ccccc1)c1ccncc1 [PluriSIn #1, isonicotinic acid N′-phenylhydrazide]",-2,88.6,full rescue; also recorded: protected
O=C(NCCc1ccc(O)cc1)c1ccc(N2CCCCC2)cc1 [PluriSIn #4],9.4,74.1,
CC(=O)Oc1ccc(/C=C/c2ccc3c(c2)CCN3C)cc1 [PluriSIn #7],26.7,109,
C/C(=N\O)NNc1ccc(Cl)cc1 [PluriSIn #9],6,101,
"Cc1ccc(NNC(=O)C(O)(c2ccccc2)c2cccs2)cc1 (stereo not drawn) [PluriSIn #6, 2-hydroxy-2-(thiophen-2-yl)-2-phenylacetic acid 4-methyl-N′-phenylhydrazide]",1.8,90.1,protected
